Measured values taken from US9113629B2, “4-amino-6-(4-substituted-phenyl)-picolinates and 6-amino-2-(4-substituted-phenyl)-pyrimidine-4-carboxylates and their use as herbicides” (DOW AGROSCIENCES LLC, priority 2013, dated 2015).
Read-outs that look alike come from different tables or passages of the source.

What was measured:
[1] = tested on: Key Broadleaf Weed and Crop Species; experiment: Post-emergent Test II herbicidal activity (Table 5); assay type: in vivo; settings: post-emergence, 336 h, post-emergent, 14 days after application; for pest or weed control at 70 g/ha: 70 g ai/ha; for pest or weed control at 140 g/ha: 140 g ai/ha
How it was run: (§1)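 Compounds, dissolved in 97:3 acetone/DMSO and diluted into an aqueous carrier containing crop oil concentrate and Triton X-155, are applied over the top of young plants at 187 L/ha. Injury is scored visually at 14 d, 0% meaning no effect and 100% complete kill.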

[2] = tested on: Key Grass and Sedge Weeds as well as Grass Crops; experiment: Post-emergent Test II herbicidal activity (Table 6); assay type: in vivo; settings: post-emergence, 336 h; for pest or weed control at 70 g/ha: application rate 70 g ai/ha; for pest or weed control at 140 g/ha: application rate 140 g ai/ha
How it was run: as §1

[3] = ABUTH: velvetleaf (Abutilon theophrasti), read-out: Visual Growth Reduction (%) 14 Days After Application ABUTH
[4] = AMARE: redroot pigweed (Amaranthus retroflexus), read-out: Visual Growth Reduction (%) 14 Days After Application AMARE
[5] = BRSNN: oilseed-rape, canola (Brassica napus), read-out: Visual Growth Reduction (%) 14 Days After Application BRSNN
[6] = CHEAL: lambsquarters (Chenopodium album), read-out: Visual Growth Reduction (%) 14 Days After Application CHEAL
[7] = EPHHL: wild poinsettia (Euphorbia heterophylla), read-out: Visual Growth Reduction (%) 14 Days After Application EPHHL
[8] = HELAN: sunflower (Helianthus annuus), read-out: Visual Growth Reduction (%) 14 Days After Application HELAN
[9] = VIOTR: wild pansy (Viola tricolor), read-out: Visual Growth Reduction (%) 14 Days After Application VIOTR
[10] = CYPES: yellow nutsedge (Cyperus esculentus), read-out: Visual Growth Reduction (%) 14 Days After Application, CYPES
[11] = DIGSA: crabgrass (Digitaria sanguinalis), read-out: Visual Growth Reduction (%) 14 Days After Application, DIGSA
[12] = ECHCG: barnyardgrass (Echinochloa crus-galli), read-out: Visual Growth Reduction (%) 14 Days After Application, ECHCG
[13] = ORYSA: rice (Oryza sativa), read-out: Visual Growth Reduction (%) 14 Days After Application, ORYSA
[14] = SETFA: giant foxtail (Setaria faberi), read-out: Visual Growth Reduction (%) 14 Days After Application, SETFA
[15] = SORVU: grain sorghum (Sorghum vulgare), read-out: Visual Growth Reduction (%) 14 Days After Application, SORVU
[16] = TRZSS (wheat, Triticum aestivum), read-out: Visual Growth Reduction (%) 14 Days After Application, TRZSS
[17] = ZEAMX: maize, corn (Zea mays), read-out: Visual Growth Reduction (%) 14 Days After Application, ZEAMX

For `COC(=O)c1nc(-c2cc(F)c(C(F)(F)F)cc2F)c(F)c(N)c1Cl` [Compound 144], the pest or weed control at 70 g/ha [1, 3] was 85 to 94%, the pest or weed control at 140 g/ha [1, 3] was 95 to 100% and the pest or weed control at 70 g/ha [1, 4] was 95 to 100%. It also gave a pest or weed control at 140 g/ha [1, 4] of 95 to 100%, a pest or weed control at 70 g/ha [1, 5] of 85 to 94% and a pest or weed control at 140 g/ha [1, 5] of 95 to 100%. It also gave a pest or weed control at 70 g/ha [1, 6] of 85 to 94%, a pest or weed control at 140 g/ha [1, 6] of 95 to 100% and a pest or weed control at 70 g/ha [1, 7] of 75 to 84%. It also gave a pest or weed control at 140 g/ha [1, 7] of 85 to 94%, a pest or weed control at 70 g/ha [1, 8] of 85 to 94% and a pest or weed control at 140 g/ha [1, 8] of 95 to 100%. It also gave a pest or weed control at 70 g/ha [1, 9] of 75 to 84%, a pest or weed control at 140 g/ha [1, 9] of 85 to 94% and a melting point of 124 to 126 °C. For the same compound, the pest or weed control at 70 g/ha [2, 10] was 85 to 94%, the pest or weed control at 140 g/ha [2, 10] was 95 to 100% and the pest or weed control at 70 g/ha [2, 11] was 60 to 74%. The pest or weed control at 140 g/ha [2, 11] was 75 to 84%, the pest or weed control at 70 g/ha [2, 12] was 45 to 59% and the pest or weed control at 140 g/ha [2, 12] was 75 to 84%. It also gave a pest or weed control at 70 g/ha [2, 13] of 0 to 29%, a pest or weed control at 140 g/ha [2, 13] of 0 to 29% and a pest or weed control at 70 g/ha [2, 14] of 60 to 74%. The pest or weed control at 140 g/ha [2, 14] was 75 to 84%, the pest or weed control at 70 g/ha [2, 15] was 75 to 84% and the pest or weed control at 140 g/ha [2, 15] was 85 to 94%. The pest or weed control at 70 g/ha [2, 16] was 60 to 74%, the pest or weed control at 140 g/ha [2, 16] was 75 to 84% and the pest or weed control at 70 g/ha [2, 17] was 60 to 74%. It also gave a pest or weed control at 140 g/ha [2, 17] of 75 to 84%.

Compound `COC(=O)c1nc(-c2cc(F)c(C(F)(F)F)cc2F)nc(N)c1OC` [Compound 148, methyl 6-amino-2-(2,5-difluoro-4-(trifluoromethyl)phenyl)-5-methoxypyrimidine-4-carboxylate] has a pest or weed control at 70 g/ha [1, 3] of 75 to 84%, a pest or weed control at 140 g/ha [1, 3] of 75 to 84% and a pest or weed control at 70 g/ha [1, 4] of 0 to 29%. The pest or weed control at 140 g/ha [1, 4] was 0 to 29%, the pest or weed control at 70 g/ha [1, 5] was 45 to 59% and the pest or weed control at 140 g/ha [1, 5] was 60 to 74%. For the same compound, the pest or weed control at 70 g/ha [1, 6] was 85 to 94%, the pest or weed control at 140 g/ha [1, 6] was 95 to 100% and the pest or weed control at 70 g/ha [1, 7] was 85 to 94%. It also gave a pest or weed control at 140 g/ha [1, 7] of 75 to 84%, a pest or weed control at 70 g/ha [1, 8] of 45 to 59% and a pest or weed control at 140 g/ha [1, 8] of 60 to 74%. The pest or weed control at 70 g/ha [1, 9] was 45 to 59%, the pest or weed control at 140 g/ha [1, 9] was 60 to 74% and the melting point was 96 to 98 °C. It also gave a pest or weed control at 70 g/ha [2, 10] of 60 to 74%, a pest or weed control at 140 g/ha [2, 10] of 75 to 84% and a pest or weed control at 70 g/ha [2, 11] of 0 to 29%. It also gave a pest or weed control at 140 g/ha [2, 11] of 0 to 29%, a pest or weed control at 70 g/ha [2, 12] of 0 to 29% and a pest or weed control at 140 g/ha [2, 12] of 0 to 29%. It also gave a pest or weed control at 70 g/ha [2, 13] of 0 to 29%, a pest or weed control at 140 g/ha [2, 13] of 30 to 44% and a pest or weed control at 70 g/ha [2, 14] of 0 to 29%. The pest or weed control at 140 g/ha [2, 14] was 0 to 29%, the pest or weed control at 70 g/ha [2, 15] was 0 to 29% and the pest or weed control at 140 g/ha [2, 15] was 0 to 29%. For the same compound, the pest or weed control at 70 g/ha [2, 16] was 30 to 44%, the pest or weed control at 140 g/ha [2, 16] was 60 to 74% and the pest or weed control at 70 g/ha [2, 17] was 0 to 29%. The pest or weed control at 140 g/ha [2, 17] was 30 to 44%.
